Drawing on PubChem BioAssay (NCI), this text covers TGI for 15 compounds.

Some test systems named below: MOLT-4 leukemia; OVCAR-4 ovarian; OVCAR-8 ovarian; PC-3 prostate; MCF7 breast; 786-0 renal; SNB-19 CNS; EKVX NSCLC; HOP-62 NSCLC; SR leukemia.
What all share (assay): inhibition of tumour cell growth, NCI panel, 48 h

The structures appear in SMILES notation.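 The compound was tested at five concentrations on cells cultured in 96-well plates, with a 48-hour exposure period. At the TGI there is no net growth.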 A value given as a limit tells only on which side of the number the result lay.

Take `COc1cccc(/C=C2/Sc3scc(-c4ccccc4)[n+]3C2=O)c1O`: the TGI with MOLT-4 leukemia is 49.5 µM; with OVCAR-4 ovarian, 74.4 µM; with OVCAR-8 ovarian it was 35.4 µM; with PC-3 prostate, above 100 µM; in the experiment with MCF7 breast it was above 100 µM; with 786-0 renal, 32.1 µM. The values for the TGI in the experiment on SNB-19 CNS, in the experiment with EKVX NSCLC and with HOP-62 NSCLC were 67 µM, 64.6 µM and 68.4 µM, respectively.
As to `O=C(Cn1c2c(c3ccccc31)CCCC2)NC1CCCCC1`, the TGI in the experiment with OVCAR-4 ovarian, in the experiment with OVCAR-8 ovarian, with PC-3 prostate, in the experiment on MCF7 breast, with 786-0 renal and in the experiment on SNB-19 CNS was above 100 µM throughout. Besides, the TGI in the experiment on EKVX NSCLC and in the experiment on HOP-62 NSCLC was above 100 µM each time.
As for `O=c1oc2ccccc2c(Nc2ccc3c(c2)S(=O)(=O)c2ccccc2O3)c1[N+](=O)[O-]`, the TGI with SR leukemia amounted to 72.6 µM; with OVCAR-4 ovarian, 73.5 µM; in the experiment with OVCAR-8 ovarian, 78.4 µM; in the experiment on PC-3 prostate, 62.1 µM; in the experiment with MCF7 breast, 56.6 µM; with 786-0 renal, 58.4 µM. The TGI with SNB-19 CNS, in the experiment with EKVX NSCLC and with HOP-62 NSCLC was above 100 µM each time.
Regarding `CCOC(=O)c1sc2c(c1OC(=O)c1cccs1)c(=O)n(-c1ccccc1)c(=S)n2-c1ccccc1`, the TGI came out at 40 µM in the experiment on MOLT-4 leukemia; 27.5 µM with OVCAR-4 ovarian; 44.9 µM in the experiment with OVCAR-8 ovarian; 31.8 µM with PC-3 prostate; 69.1 µM in the experiment with MCF7 breast; 24.4 µM in the experiment with 786-0 renal. For the same compound, the TGI in the experiment on SNB-19 CNS turned out to be 88.5 µM; in the experiment on EKVX NSCLC, 79.5 µM; with HOP-62 NSCLC, 50.3 µM.
For `[N-]=[N+]=Nc1c(-c2ccccc2)c(Cl)nc2ccccc12`, the TGI with SR leukemia, in the experiment on MOLT-4 leukemia, in the experiment with OVCAR-4 ovarian, in the experiment with OVCAR-8 ovarian, in the experiment with PC-3 prostate and with 786-0 renal was above 100 µM each time. Besides, the TGI with SNB-19 CNS, with EKVX NSCLC and with HOP-62 NSCLC was above 100 µM throughout.
`N#Cc1c(N)oc(-c2cccc([N+](=O)[O-])c2)c1C#N`: the TGI in the experiment with SR leukemia is above 100 µM; with OVCAR-8 ovarian, 44.1 µM; in the experiment with PC-3 prostate, above 100 µM; in the experiment with MCF7 breast, above 100 µM; with 786-0 renal, 68.3 µM; in the experiment on SNB-19 CNS, 74.6 µM. Moreover, the TGI in the experiment on EKVX NSCLC was above 100 µM.
With `CCC1(CC)CC(=NNS(=O)(=O)c2ccc(C)cc2)C1`, the TGI with MOLT-4 leukemia, in the experiment on OVCAR-4 ovarian, with OVCAR-8 ovarian, with PC-3 prostate, in the experiment on MCF7 breast and in the experiment on 786-0 renal was above 100 µM in each case. The TGI with SNB-19 CNS and in the experiment on EKVX NSCLC was above 100 µM in each case.
As for `Cc1ccccc1N=Nc1ccc(N=Nc2c(O)ccc3ccccc23)c(C)c1`, the TGI in the experiment on MOLT-4 leukemia, in the experiment on OVCAR-4 ovarian, in the experiment on OVCAR-8 ovarian, in the experiment on PC-3 prostate, with 786-0 renal and with SNB-19 CNS was above 100 µM each time. Besides, the TGI in the experiment with EKVX NSCLC and with HOP-62 NSCLC was above 100 µM throughout.
`N#CC(c1ccccc1)c1nc2ccc(=N)cc-2n(O)c1C(C#N)c1ccccc1` (centres undefined): the TGI in the experiment with SR leukemia, in the experiment on MOLT-4 leukemia, in the experiment on OVCAR-4 ovarian, with OVCAR-8 ovarian, with 786-0 renal and in the experiment with SNB-19 CNS was above 100 µM in each case. Further, the TGI in the experiment with EKVX NSCLC and in the experiment on HOP-62 NSCLC was above 100 µM each time.
Consider `CC(C)[C@@H]1NC(=O)[C@H]2N=C(O[C@@H]2C)[C@@H]2CCCN2C(=O)[C@H](Cc2ccccc2)NC(=O)[C@@H]2CSC(=N2)[C@@H](Cc2ccccc2)NC(=O)[C@@H]2CSC1=N2`, for which the TGI in the experiment with MOLT-4 leukemia, in the experiment on OVCAR-4 ovarian, in the experiment on OVCAR-8 ovarian, in the experiment with PC-3 prostate, in the experiment with MCF7 breast and in the experiment on 786-0 renal was above 50 µM in each case. Moreover, the TGI in the experiment on SNB-19 CNS, in the experiment with EKVX NSCLC and in the experiment on HOP-62 NSCLC was above 50 µM throughout.
Turning to `CC1CC[C@@H](C(C)C)[C@H](Oc2nnc(C3OC(CO)C(O)C3O)o2)C1` (some centres undefined), the TGI in the experiment with MOLT-4 leukemia, with OVCAR-4 ovarian, with OVCAR-8 ovarian, in the experiment on PC-3 prostate, with MCF7 breast and in the experiment with 786-0 renal was above 100 µM in each case. Further, the TGI in the experiment on SNB-19 CNS, with EKVX NSCLC and with HOP-62 NSCLC was above 100 µM in each case.
With `CCOC(=O)C1=C(O)C(=O)c2ccsc2C1=O`, the TGI in the experiment on SR leukemia, in the experiment on MOLT-4 leukemia, in the experiment with OVCAR-4 ovarian, in the experiment with OVCAR-8 ovarian, with 786-0 renal and in the experiment on SNB-19 CNS was above 100 µM in each case. For the same compound, the TGI in the experiment on EKVX NSCLC and with HOP-62 NSCLC was above 100 µM each time.
Take `CC12NN=NC1C(=O)NC2=O` (centres undefined): the TGI with SR leukemia, in the experiment with MOLT-4 leukemia, with OVCAR-4 ovarian, in the experiment with OVCAR-8 ovarian, with 786-0 renal and with SNB-19 CNS was above 100 µM throughout. Further, the TGI with EKVX NSCLC and with HOP-62 NSCLC was above 100 µM each time.
Take `COc1ccc(N2C(=O)C3c4[nH]c5ccc(C)cc5c4C4CCC(C)CC4C3C2=O)cc1` (centres undefined): the TGI in the experiment on SR leukemia, in the experiment with MOLT-4 leukemia, in the experiment with OVCAR-8 ovarian, in the experiment with PC-3 prostate, in the experiment on 786-0 renal and with SNB-19 CNS was above 100 µM each time. The same compound gave a TGI with EKVX NSCLC above 100 µM.
As to `N#CC(C#N)=Cc1ccc2c(c1)OC(Cl)O2` (centres undefined), the TGI was above 100 µM with MOLT-4 leukemia; above 100 µM in the experiment with OVCAR-4 ovarian; above 100 µM with OVCAR-8 ovarian; 47.8 µM in the experiment with PC-3 prostate; above 100 µM in the experiment with MCF7 breast; 35.2 µM in the experiment on 786-0 renal. For the same compound, the TGI is 66.4 µM in the experiment with SNB-19 CNS and 79.5 µM with EKVX NSCLC.
